Measured values: patent US12495798B2, “Nicotinamide compound and herbicidal composition comprising compound” (KOREA RESEARCH INSTITUTE OF CHEMICAL TECHNOLOGY, priority 2019, dated 2025)

Columns and labels:
Format in all cases: in vivo
wheat [1] = assay: Phytotoxicity test for field crops (soil treatment test); parameters: key: 0 (no harm); 9 (complete withered)
Method: (§1) Experimental Example 4: Phytotoxicity Test for Field Crops (Soil Treatment Test)
(§2) Soil treatment was performed for sown crops and weeds in a square plastic pot having a surface area of 50 cm^2 filled with sterilized horticultural soil (pH 6.1, organic material 1.0%, clay 21%, silt 17%, sand 52%). As a fertilizer per pot, 0.5 g of horticultural mixed fertilizer (N:P:K=17:21:17) was treated by mixing with soil. Five kinds of crops such as rice, wheat, corn, soybean, and cotton were sown in each pot. One day after sowing, test compound solutions were made by diluting with the diluent (33% acetone, 0.1% Tween-20) so that the final treatment amount of the test compounds was 19˜300 g a.i./ha. The prepared test compound solutions were treated using a spray booth (SB6-016) at a treatment amount of 100 ml per 1 m^2 of treatment area. The treated crops were managed in greenhouse conditions (average temperature 30±5° C., light/dark=14/10 hours). External symptoms and phytotoxicity were visually investigated 10 and 20 days after treatment. In the evaluation of the phytotoxicity for the crop, the grade of 0 (no harm) to 9 (complete withered) was used. The results of Table 10 were obtained by evaluating phytotoxicity value to the untreated control.

corn [2] = assay: as above; parameters: key: 0 (no harm); 9 (complete withered)
Method: as §1, §2

rice [3] = assay: as above; parameters: key: 0 (no harm); 9 (complete withered)
Method: as §1, §2

cotton [4] = assay: as above; parameters: key: 0 (no harm); 9 (complete withered)
Method: as §1, §2

soybean [5] = assay: as above; parameters: key: 0 (no harm); 9 (complete withered)
Method: as §1, §2

wheat [6] = assay: Phytotoxicity test for upland field crops (foliar treatment test); parameters: key: 0 (no harm); 9 (complete withered)
Summary of the method: (§3)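 Post-emergence spray at 19–300 g a.i./ha (acetone/Tween-20 diluent, 100 ml/m²) onto greenhouse-grown plants. Damage rated 7 and 14 (optionally 21) days later on a 0–9 scale relative to untreated plants.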

corn [7] = assay: as above; parameters: key: 0 (no harm); 9 (complete withered)
Summary of the method: as §3

rice [8] = assay: as above; parameters: key: 0 (no harm); 9 (complete withered)
Summary of the method: as §3

cotton [9] = assay: as above; parameters: key: 0 (no harm); 9 (complete withered)
Summary of the method: as §3

soybean [10] = assay: as above; parameters: key: 0 (no harm); 9 (complete withered)
Summary of the method: as §3

quack grass = assay: Herbicidal activity test against upland field weeds (foliar treatment test); parameters: key to Foliar treatment herbicidal activity, quack grass: 0 (no control); 100 (complete control); settings: 50 g ai/ha, scale 0-100
Summary of the method: (§4)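 Visual 0–100 control ratings relative to untreated plants, taken 14 (or 21) days after spraying foliage at 50 or 75 g a.i./ha. Spray solution: 50% acetone with 0.1% Tween-20; plants kept in greenhouse at 30±5 °C, 14 h light/10 h dark.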

cocklebur = assay: as above; settings: 50 g ai/ha, scale 0-100; for pest or weed control at 50 g/ha: Xanthium strumarium
Summary of the method: as §4

bindweed = assay: as above; settings: 50 g ai/ha, scale 0-100
Summary of the method: as §4

sorghum = assay: as above; settings: 50 g ai/ha, scale 0-100; for plant injury at 50 g/ha: Sorghum
Summary of the method: as §4

black nightshade = assay: as above; parameters: key to Foliar treatment herbicidal activity, black nightshade: 0 (no control); 100 (complete control); settings: 50 g ai/ha, scale 0-100
Summary of the method: as §4

barnyard grass = assay: as above; settings: 50 g ai/ha, scale 0-100; for pest or weed control at 50 g/ha: Echinochloa crus-galli
Summary of the method: as §4

fall panicum = assay: as above; settings: 50 g ai/ha, scale 0-100; for pest or weed control at 50 g/ha: Panicum dichotomiflorum
Summary of the method: as §4

crabgrass = assay: as above; settings: 50 g ai/ha, scale 0-100; for pest or weed control at 50 g/ha: Digitaria sanguinalis
Summary of the method: as §4

indian jointvetch = assay: as above; parameters: key to Foliar treatment herbicidal activity, Indian jointvetch: 0 (no control); 100 (complete control); settings: 50 g ai/ha, scale 0-100
Summary of the method: as §4

velvetleaf = assay: as above; parameters: key to Foliar treatment herbicidal activity, velvet leaf: 0 (no control); 100 (complete control); settings: 50 g ai/ha; for pest or weed control at 50 g/ha: Abutilon theophrasti, scale 0-100, read-out: Foliar treatment herbicidal activity, velvet leaf
Summary of the method: as §4

[11] = 50 g ai/ha, Wheat (7 days after treatment)
[12] = 50 g ai/ha, Wheat (14 days after treatment)
[13] = 100 g ai/ha, Wheat (7 days after treatment)
[14] = 100 g ai/ha, Wheat (14 days after treatment)
[15] = 50 g ai/ha, Corn (7 days after treatment)
[16] = 50 g ai/ha, Corn (14 days after treatment)
[17] = 100 g ai/ha, Corn (7 days after treatment)
[18] = 100 g ai/ha, Corn (14 days after treatment)

## Cn1nnnc1NC(=O)c1ccc(C(F)(F)F)nc1Sc1nnnn1C [Compound No. 1-40, N-(1-methyl-1H-tetrazol-5-yl)-2-((1-methyl-1H-tetrazol-5-yl)thio)-6-(trifluoromethyl)nicotinamide]
Wheat [1]; 50 g ai/ha, Wheat (10 days after treatment)
  Soil treatment phytotoxicity, Wheat: 0
Wheat [1]; 50 g ai/ha, Wheat (20 days after treatment)
  Soil treatment phytotoxicity, Wheat: 0
Wheat [1]; 100 g ai/ha, Wheat (10 days after treatment)
  Soil treatment phytotoxicity, Wheat: 0
Wheat [1]; 100 g ai/ha, Wheat (20 days after treatment)
  Soil treatment phytotoxicity, Wheat: 0
Corn [2]; 50 g ai/ha, Corn (10 days after treatment)
  Soil treatment phytotoxicity, Corn: 0
Corn [2]; 50 g ai/ha, Corn (20 days after treatment)
  Soil treatment phytotoxicity, Corn: 0
Corn [2]; 100 g ai/ha, Corn (10 days after treatment)
  Soil treatment phytotoxicity, Corn: 0
Corn [2]; 100 g ai/ha, Corn (20 days after treatment)
  Soil treatment phytotoxicity, Corn: 0
Rice [3]; 50 g ai/ha, Rice (10 days after treatment)
  Soil treatment phytotoxicity, Rice: 0
Rice [3]; 50 g ai/ha, Rice (20 days after treatment)
  Soil treatment phytotoxicity, Rice: 0
Rice [3]; 100 g ai/ha, Rice (10 days after treatment)
  Soil treatment phytotoxicity, Rice: 0
Rice [3]; 100 g ai/ha, Rice (20 days after treatment)
  Soil treatment phytotoxicity, Rice: 0
Cotton [4]; 50 g ai/ha, Cotton (10 days after treatment)
  Soil treatment phytotoxicity, Cotton: 1
Cotton [4]; 50 g ai/ha, Cotton (20 days after treatment)
  Soil treatment phytotoxicity, Cotton: 0
Cotton [4]; 100 g ai/ha, Cotton (10 days after treatment)
  Soil treatment phytotoxicity, Cotton: 3
Cotton [4]; 100 g ai/ha, Cotton (20 days after treatment)
  Soil treatment phytotoxicity, Cotton: 0
Soybean [5]; 50 g ai/ha, Soybean (10 days after treatment)
  Soil treatment phytotoxicity, Soybean: 0
Soybean [5]; 50 g ai/ha, Soybean (20 days after treatment)
  Soil treatment phytotoxicity, Soybean: 0
Soybean [5]; 100 g ai/ha, Soybean (10 days after treatment)
  Soil treatment phytotoxicity, Soybean: 0
Soybean [5]; 100 g ai/ha, Soybean (20 days after treatment)
  Soil treatment phytotoxicity, Soybean: 0
Wheat [6]; [11]
  Foliar treatment phytotoxicity, Wheat: 0
Wheat [6]; [12]
  Foliar treatment phytotoxicity, Wheat: 0
Wheat [6]; [13]
  Foliar treatment phytotoxicity, Wheat: 1
Wheat [6]; [14]
  Foliar treatment phytotoxicity, Wheat: 0
Corn [7]; [15]
  Foliar treatment phytotoxicity, Corn: 0
Corn [7]; [16]
  Foliar treatment phytotoxicity, Corn: 0
Corn [7]; [17]
  Foliar treatment phytotoxicity, Corn: 0
Corn [7]; [18]
  Foliar treatment phytotoxicity, Corn: 0
Rice [8]; 50 g ai/ha, Rice (7 days after treatment)
  Foliar treatment phytotoxicity, Rice: 0
Rice [8]; 50 g ai/ha, Rice (14 days after treatment)
  Foliar treatment phytotoxicity, Rice: 0
Rice [8]; 100 g ai/ha, Rice (7 days after treatment)
  Foliar treatment phytotoxicity, Rice: 0
Rice [8]; 100 g ai/ha, Rice (14 days after treatment)
  Foliar treatment phytotoxicity, Rice: 1
Cotton [9]; 50 g ai/ha, Cotton (7 days after treatment)
  Foliar treatment phytotoxicity, Cotton: 2
Cotton [9]; 50 g ai/ha, Cotton (14 days after treatment)
  Foliar treatment phytotoxicity, Cotton: 3
Cotton [9]; 100 g ai/ha, Cotton (7 days after treatment)
  Foliar treatment phytotoxicity, Cotton: 3
Cotton [9]; 100 g ai/ha, Cotton (14 days after treatment)
  Foliar treatment phytotoxicity, Cotton: 4
Soybean [10]; 50 g ai/ha, Soybean (7 days after treatment)
  Foliar treatment phytotoxicity, Soybean: 6
Soybean [10]; 50 g ai/ha, Soybean (14 days after treatment)
  Foliar treatment phytotoxicity, Soybean: 5
Soybean [10]; 100 g ai/ha, Soybean (7 days after treatment)
  Foliar treatment phytotoxicity, Soybean: 6
Soybean [10]; 100 g ai/ha, Soybean (14 days after treatment)
  Foliar treatment phytotoxicity, Soybean: 5

## C=C(C)c1nc(COCc2nc(C(F)(F)F)ccc2C(=O)Nc2nnnn2C)nn1C [Compound No. 2-128, N-(1-methyl-1H-tetrazol-5-yl)-2-(((1-methyl-5-(prop-1-en-2-yl)-1H-1,2,4-triazol-3-yl)methoxy)methyl)-6-(trifluoromethyl)nicotinamide]
Quack grass
  Foliar treatment herbicidal activity, quack grass: 0
Wheat [6]; [11]
  Foliar treatment phytotoxicity, Wheat: 0
Wheat [6]; [12]
  Foliar treatment phytotoxicity, Wheat: 0
Wheat [6]; [13]
  Foliar treatment phytotoxicity, Wheat: 0
Wheat [6]; [14]
  Foliar treatment phytotoxicity, Wheat: 0
Corn [7]; [15]
  Foliar treatment phytotoxicity, Corn: 1
Corn [7]; [16]
  Foliar treatment phytotoxicity, Corn: 0
Corn [7]; [17]
  Foliar treatment phytotoxicity, Corn: 2
Corn [7]; [18]
  Foliar treatment phytotoxicity, Corn: 0
cocklebur
  pest or weed control at 50 g/ha: 50%
bindweed
  pest or weed control at 50 g/ha: 40%
sorghum
  plant injury at 50 g/ha: 20%
Black nightshade; Solanum nigrum
  pest or weed control at 50 g/ha: 90%
Barnyard grass
  pest or weed control at 50 g/ha: 60%
Fall panicum
  pest or weed control at 50 g/ha: 70%
crabgrass
  pest or weed control at 50 g/ha: 60%
Indian jointvetch
  Foliar treatment herbicidal activity, Indian jointvetch: 0
velvetleaf
  pest or weed control at 50 g/ha: 70%

## Cn1nnnc1NC(=O)c1ccc(C(F)(F)F)nc1COCc1nc(S(C)(=O)=O)n(C)n1 [Compound No. 2-132, N-(1-methyl-1H-tetrazol-5-yl)-2-(((1-methyl-5-(methylsulfonyl)-1H-1,2,4-triazol-3-yl)methoxy)methyl)-6-(trifluoromethyl)nicotinamide]
Quack grass
  Foliar treatment herbicidal activity, quack grass: 0
Wheat [6]; [11]
  Foliar treatment phytotoxicity, Wheat: 3
Wheat [6]; [12]
  Foliar treatment phytotoxicity, Wheat: 2
Wheat [6]; [13]
  Foliar treatment phytotoxicity, Wheat: 3
Wheat [6]; [14]
  Foliar treatment phytotoxicity, Wheat: 2
Corn [7]; [15]
  Foliar treatment phytotoxicity, Corn: 0
Corn [7]; [16]
  Foliar treatment phytotoxicity, Corn: 0
Corn [7]; [17]
  Foliar treatment phytotoxicity, Corn: 0
Corn [7]; [18]
  Foliar treatment phytotoxicity, Corn: 0
cocklebur
  pest or weed control at 50 g/ha: 98%
bindweed
  pest or weed control at 50 g/ha: 70%
sorghum
  plant injury at 50 g/ha: 30%
Black nightshade
  Foliar treatment herbicidal activity, black nightshade: 100
Barnyard grass
  pest or weed control at 50 g/ha: 98%
Fall panicum
  pest or weed control at 50 g/ha: 50%
crabgrass
  pest or weed control at 50 g/ha: 98%
Indian jointvetch
  pest or weed control at 50 g/ha: 20%
velvetleaf
  pest or weed control at 50 g/ha: 98%

## Cn1nc(COCc2nc(C(F)(F)F)ccc2C(=O)Nc2nnnn2C)nc1I [Compound No. 2-137]
Quack grass
  Foliar treatment herbicidal activity, quack grass: 0
Wheat [6]; [11]
  Foliar treatment phytotoxicity, Wheat: 0
Wheat [6]; [12]
  Foliar treatment phytotoxicity, Wheat: 0
Wheat [6]; [13]
  Foliar treatment phytotoxicity, Wheat: 0
Wheat [6]; [14]
  Foliar treatment phytotoxicity, Wheat: 0
Corn [7]; [15]
  Foliar treatment phytotoxicity, Corn: 0
Corn [7]; [16]
  Foliar treatment phytotoxicity, Corn: 0
Corn [7]; [17]
  Foliar treatment phytotoxicity, Corn: 0
Corn [7]; [18]
  Foliar treatment phytotoxicity, Corn: 0
cocklebur
  Foliar treatment herbicidal activity, Cocklebur: 98
bindweed
  Foliar treatment herbicidal activity, Bindweed: 70
sorghum
  Foliar treatment herbicidal activity, Sorghum: 60
Black nightshade
  Foliar treatment herbicidal activity, black nightshade: 100
Barnyard grass
  Foliar treatment herbicidal activity, barnyard grass: 95
Fall panicum
  Foliar treatment herbicidal activity, Fall panicum: 50
crabgrass
  Foliar treatment herbicidal activity, Crabgrass: 95
Indian jointvetch
  Foliar treatment herbicidal activity, Indian jointvetch: 100
velvetleaf; scale 0-100
  Foliar treatment herbicidal activity, velvet leaf: 100
